Reference: PubChem BioAssay (NCI)
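Interpolation was linear, between the two tested concentrations surrounding the appropriate level; five concentrations were tested over 48 hours in 96-well plates. At the GI50, growth is halved. At the TGI there is no net growth.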

Legend:
Experiment in all cases: growth of human tumour cells (NCI), 48 h
SN12C renal = tested on: SN12C renal
NCI-H23 lung = tested on: NCI-H23 lung
CCRF-CEM leukemia = tested on: CCRF-CEM leukemia
A549 NSCLC = tested on: A549 NSCLC
OVCAR-3 ovarian = tested on: OVCAR-3 ovarian
SR leukemia = tested on: SR leukemia
MCF7 breast = tested on: MCF7 breast
SF-268 CNS = tested on: SF-268 CNS
786-0 renal = tested on: 786-0 renal
SK-OV-3 ovarian = tested on: SK-OV-3 ovarian
HL-60(TB) leukemia = tested on: HL-60(TB) leukemia
EKVX NSCLC = tested on: EKVX NSCLC
SF-539 CNS = tested on: SF-539 CNS
HT29 colon = tested on: HT29 colon
UACC-62 melanoma = tested on: UACC-62 melanoma
TK-10 renal = tested on: TK-10 renal
CAKI-1 renal = tested on: CAKI-1 renal
A498 renal = tested on: A498 renal
NCI-H460 lung = tested on: NCI-H460 lung
HOP-92 NSCLC = tested on: HOP-92 NSCLC
T-47D breast = tested on: T-47D breast
NCI/ADR-RES ovarian = tested on: NCI/ADR-RES ovarian
COLO 205 colon = tested on: COLO 205 colon
SK-MEL-2 melanoma = tested on: SK-MEL-2 melanoma
SNB-19 CNS = tested on: SNB-19 CNS
M14 melanoma = tested on: M14 melanoma
SF-295 CNS = tested on: SF-295 CNS
RPMI-8226 leukemia = tested on: RPMI-8226 leukemia
UO-31 renal = tested on: UO-31 renal
NCI-H226 lung = tested on: NCI-H226 lung
HCT-116 colon = tested on: HCT-116 colon
ACHN renal = tested on: ACHN renal
OVCAR-5 ovarian = tested on: OVCAR-5 ovarian
MDA-MB-435 = tested on: MDA-MB-435
OVCAR-8 ovarian = tested on: OVCAR-8 ovarian
MOLT-4 leukemia = tested on: MOLT-4 leukemia
MALME-3M melanoma = tested on: MALME-3M melanoma
HCT-15 colon = tested on: HCT-15 colon
HOP-62 NSCLC = tested on: HOP-62 NSCLC
NCI-H522 lung = tested on: NCI-H522 lung
BT-549 breast = tested on: BT-549 breast
K-562 leukemia = tested on: K-562 leukemia
UACC-257 melanoma = tested on: UACC-257 melanoma
KM12 colon = tested on: KM12 colon
MDA-MB-468 breast = tested on: MDA-MB-468 breast
U251 CNS = tested on: U251 CNS
DU-145 prostate = tested on: DU-145 prostate
OVCAR-4 ovarian = tested on: OVCAR-4 ovarian
SK-MEL-5 melanoma = tested on: SK-MEL-5 melanoma
IGROV1 ovarian = tested on: IGROV1 ovarian
HCC-2998 colon = tested on: HCC-2998 colon
SK-MEL-28 melanoma = tested on: SK-MEL-28 melanoma
RXF 393 renal = tested on: RXF 393 renal
PC-3 prostate = tested on: PC-3 prostate
SNB-75 CNS = tested on: SNB-75 CNS

For `Cn1cc(-c2cc3nc(-c4cn(C)c5ncc(Br)cc45)cc(N)n3n2)c2ccccc21`, the GI50 (SN12C renal) was 12.8 µM, the TGI (SN12C renal) was 27.9 µM and the GI50 (NCI-H23 lung) was 15.7 µM. For the same molecule, the TGI (NCI-H23 lung) was 41.3 µM, the GI50 (CCRF-CEM leukemia) was 3.52 µM and the TGI (CCRF-CEM leukemia) was greater than 100 µM. For the same molecule, the GI50 (A549 NSCLC) was 9.25 µM, the TGI (A549 NSCLC) was greater than 100 µM and the GI50 (OVCAR-3 ovarian) was 13.5 µM. It also gave a TGI (OVCAR-3 ovarian) of 28.5 µM, a GI50 (SR leukemia) of 2.46 µM and a TGI (SR leukemia) greater than 100 µM. The GI50 (MCF7 breast) was 5.31 µM, the TGI (MCF7 breast) was 27.3 µM and the GI50 (SF-268 CNS) was 13.1 µM. It also gave a TGI (SF-268 CNS) of 89.6 µM, a GI50 (786-0 renal) of 13.4 µM and a TGI (786-0 renal) of 33.3 µM. The GI50 (SK-OV-3 ovarian) was 20.4 µM, the TGI (SK-OV-3 ovarian) was 59.6 µM and the GI50 (HL-60(TB) leukemia) was 3.53 µM. For the same molecule, the TGI (HL-60(TB) leukemia) was 32.6 µM, the GI50 (EKVX NSCLC) was 10.1 µM and the TGI (EKVX NSCLC) was 27.1 µM. The GI50 (SF-539 CNS) was 14.1 µM, the TGI (SF-539 CNS) was 28.7 µM and the GI50 (HT29 colon) was 5.65 µM. The TGI (HT29 colon) was 20.4 µM, the GI50 (UACC-62 melanoma) was 11.5 µM and the TGI (UACC-62 melanoma) was 24.8 µM. The GI50 (TK-10 renal) was 13.8 µM, the TGI (TK-10 renal) was 44.9 µM and the GI50 (CAKI-1 renal) was 12.7 µM. It also gave a TGI (CAKI-1 renal) of 48.1 µM, a GI50 (A498 renal) of 8.84 µM and a TGI (A498 renal) of 23.7 µM. For the same molecule, the GI50 (NCI-H460 lung) was 7.78 µM, the TGI (NCI-H460 lung) was 28.1 µM and the GI50 (HOP-92 NSCLC) was 4.97 µM. It also gave a TGI (HOP-92 NSCLC) of 25.1 µM, a GI50 (T-47D breast) of 7.38 µM and a TGI (T-47D breast) of 30.4 µM. The GI50 (NCI/ADR-RES ovarian) was 17.4 µM, the TGI (NCI/ADR-RES ovarian) was 76.1 µM and the GI50 (COLO 205 colon) was 16.8 µM. The TGI (COLO 205 colon) was 33.8 µM, the GI50 (SK-MEL-2 melanoma) was 11.2 µM and the TGI (SK-MEL-2 melanoma) was 26.7 µM. For the same molecule, the GI50 (SNB-19 CNS) was 17.8 µM, the TGI (SNB-19 CNS) was 41.9 µM and the GI50 (M14 melanoma) was 15.3 µM. It also gave a TGI (M14 melanoma) of 38.1 µM, a GI50 (SF-295 CNS) of 13.5 µM and a TGI (SF-295 CNS) of 31.1 µM. For the same molecule, the GI50 (RPMI-8226 leukemia) was 13.6 µM, the TGI (RPMI-8226 leukemia) was greater than 100 µM and the GI50 (UO-31 renal) was 13.1 µM. The TGI (UO-31 renal) was 45.8 µM, the GI50 (NCI-H226 lung) was 15.1 µM and the TGI (NCI-H226 lung) was 62.7 µM. It also gave a GI50 (HCT-116 colon) of 7.98 µM, a TGI (HCT-116 colon) of 27.6 µM and a GI50 (ACHN renal) of 13.5 µM. The TGI (ACHN renal) was 45.6 µM, the GI50 (OVCAR-5 ovarian) was 14.5 µM and the TGI (OVCAR-5 ovarian) was 35.1 µM. The GI50 (MDA-MB-435) was 16.4 µM, the TGI (MDA-MB-435) was 34.1 µM and the GI50 (OVCAR-8 ovarian) was 21.8 µM. For the same molecule, the TGI (OVCAR-8 ovarian) was 85.9 µM, the GI50 (MOLT-4 leukemia) was 3.52 µM and the TGI (MOLT-4 leukemia) was 30.9 µM. It also gave a GI50 (MALME-3M melanoma) of 16.8 µM, a TGI (MALME-3M melanoma) of 32.7 µM and a GI50 (HCT-15 colon) of 2.53 µM. It also gave a TGI (HCT-15 colon) of 6.94 µM, a GI50 (HOP-62 NSCLC) of 14.8 µM and a TGI (HOP-62 NSCLC) of 46.5 µM. It also gave a GI50 (NCI-H522 lung) of 12.8 µM, a TGI (NCI-H522 lung) of 32.7 µM and a GI50 (BT-549 breast) of 19.5 µM. It also gave a TGI (BT-549 breast) of 47.8 µM, a GI50 (K-562 leukemia) of 2.94 µM and a TGI (K-562 leukemia) greater than 100 µM. It also gave a GI50 (UACC-257 melanoma) of 14 µM, a TGI (UACC-257 melanoma) of 30.4 µM and a GI50 (KM12 colon) of 6.04 µM. For the same molecule, the TGI (KM12 colon) was 26.7 µM, the GI50 (MDA-MB-468 breast) was 3.71 µM and the TGI (MDA-MB-468 breast) was 15.6 µM. For the same molecule, the GI50 (U251 CNS) was 5.65 µM, the TGI (U251 CNS) was 27.4 µM and the GI50 (DU-145 prostate) was 21.4 µM. The TGI (DU-145 prostate) was greater than 100 µM, the GI50 (OVCAR-4 ovarian) was 17.1 µM and the TGI (OVCAR-4 ovarian) was 59.7 µM. The GI50 (SK-MEL-5 melanoma) was 15.1 µM, the TGI (SK-MEL-5 melanoma) was 28.4 µM and the GI50 (IGROV1 ovarian) was 11.7 µM. For the same molecule, the TGI (IGROV1 ovarian) was 32.6 µM, the GI50 (HCC-2998 colon) was 3.74 µM and the TGI (HCC-2998 colon) was 13.9 µM. For the same molecule, the GI50 (SK-MEL-28 melanoma) was 15.2 µM, the TGI (SK-MEL-28 melanoma) was 29.1 µM and the GI50 (RXF 393 renal) was 6.13 µM. It also gave a TGI (RXF 393 renal) of 19.3 µM, a GI50 (PC-3 prostate) of 6.58 µM and a TGI (PC-3 prostate) greater than 100 µM. For the same molecule, the GI50 (SNB-75 CNS) was 11.9 µM and the TGI (SNB-75 CNS) was 58.2 µM.
